Laboratory results published in patent publication US20190053492A1, “SUBSTITUTED PYRIDINE COMPOUNDS AS PESTICIDES” (Bayer CropScience Aktiengesellschaft, priority 2016, published 2019).
Where two headings read alike, the source gives them in different places.

Tests used:
Tetranychus urticae = Tetranychus urticae spray test, OP-resistant; assay type: in vivo; conditions: after 6 days, bean leaf discs
Description: Tetranychus urticae—Spray Test, OP-Resistant
Solvent: 78.0 parts by weight of acetone • • 1.5 parts by weight of dimethylformamide
Emulsifier: alkylaryl polyglycol ether
To produce a suitable active ingredient formulation, 1 part by weight of active ingredient is dissolved with the specified parts by weight of solvent and made up with water containing an emulsifier concentration of 1000 ppm until the desired concentration is attained. To produce further test concentrations, the formulation is diluted with emulsifier-containing water.
Discs of bean leaves (Phaseolus vulgaris) infested with all stages of the greenhouse red spider mite (Tetranychus urticae) are sprayed with an active ingredient formulation of the desired concentration.
After 6 days, the efficacy in % is determined. 100% means that all the spider mites have been killed; 0% means that no spider mites have been killed.

[1] = log P by HPLC on reversed-phase column (C 18), EEC Directive 79/831 Annex V.A8; assay type: physicochemical; conditions: 55° C.; for LOGP_HCOOH: log P (HCOOH); for chromatographic logP: reversed-phase HPLC column (C 18)
Description: Temperature: 55° C. […] Called log P (HCOOH) in the table. […] Called log P (neutral) in the table.

Spodoptera frugiperda = Spodoptera frugiperda spray test; assay type: in vivo; conditions: after 7 days, maize leaf discs
Procedure, shortened: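 Maize leaf discs were sprayed with compound formulated in acetone/DMF and emulsifier-containing water, dried, then infested with Spodoptera frugiperda caterpillars. Percent kill was scored after 7 days, from 100% (all dead) to 0% (none dead).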

Phaedon cochleariae = Phaedon cochleariae spray test; assay type: in vivo; conditions: after 7 days, Chinese cabbage leaf discs
Procedure, shortened: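 Chinese cabbage leaf discs sprayed with compound in acetone/DMF and emulsifier-containing water, then infested with mustard beetle larvae once dry. Efficacy in % scored after 7 days (100% = all larvae killed, 0% = none).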

Musca domestica = Musca domestica test; assay type: in vivo; conditions: after 2 days, adult houseflies
Description: Musca domestica Test Solvent: dimethyl sulphoxide To produce a suitable active ingredient formulation, 10 mg of active ingredient are mixed with 0.5 ml of dimethyl sulphoxide, and the concentrate is diluted with water to the desired concentration. Vessels containing a sponge treated with sugar solution and the active ingredient formulation of the desired concentration are populated with 10 adult houseflies (Musca domestica). After 2 days, the kill in % is determined. 100% means that all of the flies have been killed; 0% means that none of the flies have been killed.

Ctenocephalides felis = Ctenocephalides felis oral test; assay type: in vivo; conditions: application rate 100 ppm in citrated cattle blood, after 2 days, adult cat fleas
Procedure, shortened: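 About 20 unfed adult cat fleas fed through a parafilm membrane on citrated cattle blood dosed with compound from a DMSO formulation. Percent kill was scored after 2 days.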

Lucilia cuprina = Lucilia cuprina test; assay type: in vivo; conditions: application rate 100 ppm, after 2 days, L1 larvae
Procedure, shortened: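 Active ingredient dissolved in DMSO and diluted with water to the test concentration. About 20 first-instar sheep blowfly larvae placed on minced horsemeat containing the formulation; percentage of larvae killed scored after 2 days.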

[2] = acidic range at pH 2.7, 0.1% aqueous formic acid and acetonitrile, HPLC on reversed-phase column (C 18)
[3] = log P, neutral range, HPLC on reversed-phase column (C 18)
[4] = acidic range pH 2.7, 0.1% aqueous formic acid and acetonitrile, reversed-phase column (C 18)

Structure (SMILES)	efficacy (spider mites killed) (Tetranychus urticae; application rate 500 g/ha) [%]	LOGP_HCOOH [1, 2]	LOGP_NEUTRAL [1, 3]	efficacy (caterpillars killed) (Spodoptera frugiperda; application rate 100 g/ha) [%]	efficacy (caterpillars killed) (Spodoptera frugiperda; application rate 500 g/ha) [%]	efficacy (beetle larvae killed) (Phaedon cochleariae; application rate 100 g/ha) [%]	efficacy (beetle larvae killed) (Phaedon cochleariae; application rate 500 g/ha) [%]	efficacy (kill in %) (Musca domestica; application rate 100 ppm) [%]	efficacy (kill in %) (Ctenocephalides felis) [%]	efficacy (kill in %) (Lucilia cuprina) [%]	further results
CC(NC(=O)c1cc(-c2ccc(OC(F)(F)F)cc2)cc(NC(=O)C2CC2)n1)c1ccc(C#N)cc1 (single isomer, unassigned) [Example I-218]	90	4.17	4.02	100	100	100	100	–	–	–	efficacy (spider mites killed) (Tetranychus urticae; application rate 100 g/ha): 90%
O=C(NCc1ccc([N+](=O)[O-])cc1)c1cc(-c2ccc(OC(F)(F)F)cc2)cc(NC(=O)C2CC2)n1 [Example I-085]	–	–	3.97	100	100	100	100	80	100	100	LOGP_HCOOH [1, 4]: 4.11
O=C(NC1CC1)c1cc(-c2ccc(OC(F)(F)F)cc2)cc(NC(=O)C2CC2)n1 [Example I-089]	–	–	3.39	100	100	100	100	100	100	95	LOGP_HCOOH [1, 4]: 3.51
Cn1ccc(-c2ccc(CNC(=O)c3cc(-c4ccc(OC(F)(F)F)cc4)cc(NC(=O)C4CC4)n3)cc2)n1 [Example I-100]	–	–	3.75	–	83	–	–	–	–	–	efficacy (spider mites killed) (Tetranychus urticae; application rate 100 g/ha): 90%; LOGP_HCOOH [1, 4]: 3.86
COC(=O)c1ccc(CNC(=O)c2cc(-c3ccc(OC(F)(F)F)cc3)cc(NC(=O)C3CC3)n2)cc1 [Example I-101]	90	–	3.97	–	–	–	83	–	–	–	LOGP_HCOOH [1, 4]: 4.08
CC(C#N)NC(=O)c1cc(-c2ccc(OC(F)(F)F)cc2)cc(NC(=O)C2CC2)n1 (centres unmarked) [Example I-115]	–	3.46	3.40	100	100	100	100	80	100	90	–
N#Cc1ccc(CNC(=O)c2cc(-c3cc(F)c(OC(F)(F)F)c(F)c3)cc(NC(=O)C3CC3)n2)cc1 [Example I-152]	–	4.14	4.05	100	100	100	100	90	100	90	–
N#Cc1ccc(CNC(=O)c2cc(-c3ccc4c(c3)OC(F)(F)O4)cc(NC(=O)C3CC3)n2)cc1 [Example I-154]	–	3.76	3.61	83	100	100	100	100	100	100	–
N#Cc1ccc(CNC(=O)c2cc(-c3cc(F)c(OC(F)F)c(F)c3)cc(NC(=O)C3CC3)n2)cc1 [Example I-155]	–	3.46	3.40	100	100	–	83	100	100	100	–
N#Cc1ccc(CNC(=O)c2cc(-c3ccc(C(F)(F)F)s3)cc(NC(=O)C3CC3)n2)cc1 [Example I-160, N-(4-Cyanobenzyl)-6-[(cyclopropylcarbonyl)amino]-4-[5-(trifluoromethyl)-2-thienyl]pyridine-2-carboxamide]	–	–	–	–	–	–	–	80	–	100	chromatographic logP ([1]; pH 2.7, LC-MS acidic range, pH 2.7, 0.1% formic acid/acetonitrile, read-out: log P (acidic) / log P (HCOOH)): 3.73; chromatographic logP ([1]; pH 2.7, log P (HCOOH), acidic range at pH 2.7, 0.1% aqueous formic acid and acetonitrile, HPLC on reversed-phase column (C 18), read-out: LOGP_HCOOH): 3.68; pest or weed control at 100 g/ha (Spodoptera frugiperda; Spodoptera frugiperda, foliar, 168 h, application rate 100 g/ha, read-out: efficacy (caterpillars killed)): 100%; pest or weed control at 500 g/ha (Spodoptera frugiperda; Spodoptera frugiperda, foliar, 168 h, application rate 500 g/ha, read-out: efficacy (caterpillars killed)): 100%; pest or weed control at 100 g/ha (Phaedon cochleariae; Phaedon cochleariae, foliar, 168 h, application rate 100 g/ha, read-out: efficacy (beetle larvae killed)): 100%; pest or weed control at 500 g/ha (Phaedon cochleariae; Phaedon cochleariae, foliar, 168 h, application rate 500 g/ha, read-out: efficacy (beetle larvae killed)): 100%; pest or weed control at 100 ppm (Ctenocephalides felis; Ctenocephalides felis, po, 48 h, read-out: efficacy (kill in %)): 100%
N#Cc1ccc(CNC(=O)c2cc(-c3ccc4c(c3)OC(F)(F)C(F)(F)O4)cc(NC(=O)C3CC3)n2)cc1 [Example I-172]	–	4.27	4.57	100	100	–	100	100	100	100	–
O=C(NC1(C2CC2)CC1)c1cc(-c2ccc(OC(F)(F)F)cc2)cc(NC(=O)C2CC2)n1 [Example I-184]	–	4.23	–	–	100	100	100	–	100	100	efficacy (kill in %) (Musca domestica; application rate 20 ppm): 100%
N#CC1CCC(CNC(=O)c2cc(-c3ccc(C(F)(F)C(F)(F)F)c(F)c3)cc(NC(=O)C3CC3)n2)CC1 (centres unmarked) [Example I-185]	90	4.29	4.14	100	100	100	100	–	–	–	–
N#Cc1ccc(CNC(=O)c2cc(-c3ccc(OC(F)(F)C(F)Cl)cc3)cc(NC(=O)C3CC3)n2)cc1 (centres unmarked) [Example I-194]	90	3.81	3.74	–	–	–	83	–	–	–	efficacy (spider mites killed) (Tetranychus urticae; application rate 100 g/ha): 90%
N#CC1CCC(CNC(=O)c2cc(-c3ccc(C(F)(F)C(F)(F)F)cc3)cc(NC(=O)C3CC3)n2)CC1 (centres unmarked) [Example I-195]	–	4.22	4.08	100	100	100	100	100	100	100	efficacy (kill in %) (Musca domestica; application rate 20 ppm): 100%
O=C(NCc1ccc([N+](=O)[O-])cc1)c1cc(-c2ccc(C(F)(F)C(F)(F)F)cc2)cc(NC(=O)C2CC2)n1 [Example I-196]	–	4.37	4.30	100	100	100	100	80	100	100	–
O=C(NCc1ccccc1)c1cc(-c2ccc(OC(F)(F)F)cc2)cc(NC(=O)C2CC2)n1 [Example I-227]	90	4.23	–	–	100	–	100	–	–	–	efficacy (spider mites killed) (Tetranychus urticae; application rate 100 g/ha): 90%
N#Cc1ccc(CNC(=O)c2cc(-c3ccc(OC(F)(F)F)cc3)cc(NC(=O)C3CC3)n2)s1 [Example I-255]	90	–	–	83	100	–	–	–	–	–	LOGP_HCOOH [1, 4]: 3.90; LOGP_NEUTRAL ([1]; log P (neutral), HPLC reversed-phase column (C 18)): 3.88
